Data from patent US8906414B1, “Methods and compositions for improving bioavailability of epigallocatechin gallate (EGCG)” (University of South Florida, priority 2009, dated 2014).

How the values were obtained:
[1] = Total EGCG concentration in blood and brain tissues after 4 weeks of treatment; type: in vivo; conditions: after 4 weeks of treatment at a maximum dose (300 mg/kg)
Water solubility of EGCG = type: physicochemical
SweAPP N2a cells = conditions: free EGCG (Rezai-Zadeh et al., 2005); cited from earlier work
[2] = oral dose of 800 mg/70 kg/day; cited from earlier work

total EGCG concentration in blood and brain tissues [1]: 1000 to 1300 ng/mL
water solubility (Water solubility of EGCG): poorly water soluble
Compound: O=C(O[C@@H]1Cc2c(O)cc(O)cc2O[C@@H]1c1cc(O)c(O)c(O)c1)c1cc(O)c(O)c(O)c1 [EGCG, (−)-epigallocatechin-3-gallate]
EGCG concentration necessary for promoting APP α-secretase cleavage (SweAPP N2a cells): 1000 to 2000 ng/mL
EGCG in human plasma [2]: approximately 400 ng/ml
